Test results as given in patent US9944991B2, “Compositions and methods for diagnosis, prognosis and treatment of hematological malignancies” (Dana-Farber Cancer Institute, Inc., priority 2012, dated 2018).
Entries after “also recorded” stand apart in the source; their conditions may differ.

What was measured:
[1] = tested on: NF-κB p65; assay: NF-κB p65 DNA-binding activity (Active Motif TransAM) in nuclear extracts; assay type: cell-based, human; conditions: BCWM.1 and MWCL.1; everolimus 1 nM or bortezomib 5 nM, 4 hours; TNF-α 10 ng/mL
Description: NF-κB activity was investigated using the Active Motif TransAM kits, a DNA-binding enzyme-linked immunosorbent assay (ELISA)-based assay (Active Motif North America, Carlsbad, Calif.).

[2] = tested on: BCWM1 cells; assay: [H]3 thymidine uptake cell proliferation assay; assay type: cell-based, human; conditions: 20 μM, 48 hours, vs scramble control
Procedure: (§1) To assess the uptake of antimiR-155 into BCWM1 or MEC1 cells, a 5′ FAM-labeled antimiR-155 was used and the antimiR was added directly to the cell suspension without any transfection reagent. The uptake of FAM-labeled antimiR-155 into BCWM1 cells was higher than 90% as judged by flow cytometry (data not shown), which indicates efficient delivery of the 8-mer antimiR into tumor cells. To further examine the functional effect of antimiR-155 on BCWM1 or MEC1, cell survival and cell proliferation was measured by MTT and [H]^3 thymidine uptake assays, respectively. […] Thus, miR-155 inhibition regulates cell proliferation, but not cell apoptosis.

[3] = tested on: MEC1 cells; assay: [H]3 thymidine uptake cell proliferation assay; assay type: cell-based, human; conditions: 20 μM, 48 hours, vs scramble control
Procedure: as §1

[4] = tested on: BCWM1 cells; assay: MTT cell survival / cytotoxicity assay; assay type: cell-based, human; conditions: 20 μM, 48 hours, vs scramble control
Procedure: as §1

[5] = tested on: MEC1 cells; assay: MTT cell survival / cytotoxicity assay; assay type: cell-based, human; conditions: 20 μM, 48 hours, vs scramble control
Procedure: as §1

[6] = tested on: miR-155; assay: Gene expression profiling and qRT-PCR of miR-155 target mRNAs in BCWM1 cells; assay type: cell-based, human; conditions: vs scramble control
Procedure: Total RNA from BCWM1 cells treated with antimiR-155 or LNA scramble control oligonucleotide, respectively, for 48 hours, were isolated using RNeasy kit (Qiagen) as described by the manufacturer, and hybridized on an Affymetrix U133A 2.0 array chip (Affymetrix, Santa Clara, Calif.). GEP data were analyzed using dChip software (biosunl.harvard.edu/complab/dchip/). Candidate target mRNAs for miR-155 were identified by using the algorithms TargetScan (genes.mit.edu/targetscan/), PicTar (pictar.bio.nyu.edu/) and RNAhybrid (bibiserv.techfak.uni-bielefeld.de/rnahybrid/).
(§2) Total RNA of cells was isolated with the RNeasy kit (Qiagen). cDNA was synthesized using the SuperScript cDNA synthesis kit (Invitrogen) and qRT-PCR reactions were performed using SYBR master mix (SA Bioscience) with designated primers relative to 18S expression by StepOnePlus™ Real-Time PCR System (Applied Biosystem) in triplicates. TaqMan® microRNA Assays kits (Applied Biosystem) were used for quantifying hsa-miR-155 levels relative to RNU6B expression.
To identify new direct miR-155 targets in B cell lymphomas, gene expression profiling (GEP) was performed on BCWM.1 cells after treatment with antimiR-155 or scramble control for 24 or 48 hours. […]

[7] = tested on: miR-155; assay: qRT-PCR of miR-155 target genes in primary WM CD19+ cells; assay type: cell-based, human; conditions: 20 μM, 48 hours, vs scramble control
Procedure: as §2
(§3) The mRNA levels of the six miR-155 target genes, SMAD5, SOCS1, CEBPβ, MAFB, SHANK2 and SH3PXD2A, […] were next determined by qRT-PCR from primary WM CD19^+ cells, and primary CLL cells, normal donor blood CD19^+ cells, BCWM1 and MEC1 cells.

[8] = tested on: miR-155; assay: qRT-PCR of miR-155 target genes in primary CLL cells; assay type: cell-based, human; conditions: 20 μM, 48 hours, vs scramble control
Procedure: as §2, §3

[9] = tested on: mCherry-Luc+-BCWM1 cells; assay: Xenograft mouse model of WM, bioluminescent imaging of tumor burden; assay type: in vivo, SCID mice
Procedure: (§4) Immediately after tail vein injection of mCherry-Luc+-BCWM1 cells (3×10^6/mouse) in SCID mice, the mice (6 mice/group) were treated with a single intravenous tail vein injection of 25 mg/kg with either antimiR-155 or LNA scramble control, followed by weekly maintenance doses of 5 mg/kg antimiR-155 or LNA scramble control until the mice were sacrificed. Mice were injected with 75 mg/kg luciferin (Caliper Life Sciences, Hopkinton, Mass.), followed by whole-body real-time bioluminescence imaging (Xenogen IVIS imaging system, Caliper Life Sciences, Hopkinton, Mass.) performed at Day 0, Day 14, and Day 19. Mice were sacrificed by inhalation of CO2. RNA was extracted from CD19+ cells isolated from one mouse femur by using CD19+ microbead selection. The other femur, liver, and spleen were fixed in formaldehyde.
To assess the anti-tumor activity of antimiR-155 in vivo, a xenograft mouse model of WM was used. Six SCID mice per group were engrafted with 3×10^6 mCherry-Luc^+-BCWM1 cells, after which mice were injected with a loading dose of 25 mg/kg antimiR-155 or scramble control, which was followed by weekly maintenance doses of 5 mg/kg of each respective compound until the mice were sacrificed. Tumor burden was monitored using bioluminescent imaging (BLI) at Days 0, 14, and 19 after injection (FIG. 7A).

[10] = tested on: miR-155; assay: miR-155 target de-repression in xenograft mice (qRT-PCR of bone marrow CD19+ cells, immunostaining); assay type: in vivo, SCID mice
Procedure: as §4
Moreover, immunostaining confirmed de-repression of the MAFB and CEBPβ targets at the protein level in the bone marrow and spleen upon treatment with the antimiR-155 (FIG. 7D).

[11] = tested on: BCWM1 cells; assay: Co-culture with primary WM bone marrow stromal cells, proliferation; assay type: cell-based, human; conditions: 20 μM, 48 hours
Procedure: (§5) To examine the effect of antimiR-155 on tumor progression in the context of the microenvironment, the miR-155 levels were first quantified in bone marrow stromal cells (mesenchymal stem cells) from WM patients in comparison to normal healthy donors. […] Consequently, 20 μM antimiR-155 or scramble control was added to a co-culture of BCWM1 and primary WM bone marrow stromal cells or MEC1 cells and primary WM bone marrow stromal cells, and then assessed for cell proliferation by MTT and [H]^3 thymidine uptake assays, respectively, after 48-hours. […] No effect on cell cytotoxicity on stromal cells was observed.

[12] = tested on: MEC1 cells; assay: as above; assay type: cell-based, human; conditions: 20 μM, 48 hours
Procedure: as §5

[13] = tested on: primary WM bone marrow stromal cells; assay: Cytotoxicity on stromal cells in co-culture; assay type: cell-based, human; conditions: 20 μM, 48 hours
Procedure: as §5

[14] = tested on: BCWM1 cells; assay: Co-culture with stromal cells from wild-type or miR-155−/− mice, [H]3 thymidine uptake; assay type: cell-based, human; conditions: 20 μM, 48 hours, vs scramble control
Procedure: (§6) To further clarify whether antimiR-155 can affect both tumor cells and stromal cells, BCWM1 or MEC1 cells were treated with antimiR-155 or scramble control, followed by co-culturing of the treated cells with bone marrow stromal cells from wild-type mice in comparison with stromal cells from miR-155^−/− mice. Cell survival and cell proliferation were assessed by MTT assay and [H]^3 thymidine uptake assays, respectively, after 48-hour of co-culture.

[15] = tested on: MEC1 cells; assay: as above; assay type: cell-based, human; conditions: 20 μM, 48 hours, vs scramble control
Procedure: as §6

## CC(C)C[C@H](NC(=O)[C@H](Cc1ccccc1)NC(=O)c1cnccn1)B(O)O [bortezomib]
[1]
  TNF-α-induced NF-κB recruitment to the nucleus, single agents: similarly inhibited

## antimiR-155: fully LNA-modified 8-mer seed-targeting antimiR-155 (3′ATTACGAT 5′ (SEQ ID NO:9)) (fully LNA-modified, chemistry not fully specified; listed 3' to 5')
[2]
  cell proliferation: significant reduction in cell proliferation
[3]
  cell proliferation: significant reduction in cell proliferation
[4]
  cell cytotoxicity: no change in cell cytotoxicity
[5]
  cell cytotoxicity: no change in cell cytotoxicity
[6]; 24 or 48 hours
  validated miR-155 target mRNAs (CEBPβ, SMAD5, SOCS1): up-regulated; also recorded: upregulated
[6]; 48 hours
  new miR-155 targets MAFB, SHANK2, SH3PXD2A mRNA: de-repressed; also recorded: upregulated
[7]
  mRNA levels of the six miR-155 targets: significant increase in the mRNA levels
[8]
  mRNA levels of the six miR-155 targets: significant increase in the mRNA levels
[9]; 25 mg/kg loading dose, weekly 5 mg/kg, Day 14 and Day 19, vs scramble control
  tumor burden (BLI): significant reduction in tumor burden; also recorded: significantly decreased tumor burden
[9]; antimiR-155 vs scramble control group
  body weight: No difference in body weight
[10]; mouse, in vivo
  CEBPβ protein level in bone marrow and spleen (immunostaining): de-repression
  MAFB protein level in bone marrow and spleen (immunostaining): de-repression
[10]; vs scramble control
  mRNA levels of six miR-155 targets in bone marrow WM CD19+ cells: de-repressed
[11]
  protective effect of bone marrow stromal cells on WM tumor cells: overcame the protective effect of bone marrow stromal cells
[11]; primary WM bone marrow stromal cells
  tumor cell proliferation in co-culture: decreased tumor cell proliferation
[12]
  tumor cell proliferation in co-culture: decreased tumor cell proliferation
[13]
  cell cytotoxicity on stromal cells: No effect
[14]
  tumor cell proliferation, co-culture with miR-155−/− stromal cells: not significantly
  tumor cell proliferation, co-culture with wild-type mice stroma: decreased tumor cell proliferation
[15]
  tumor cell proliferation, co-culture with miR-155−/− stromal cells: not significantly
  tumor cell proliferation, co-culture with wild-type mice stroma: decreased tumor cell proliferation
